Assay results taken from patent US20260183276A1, “miRNA DYSREGULATION CORRECTION AS A STRATEGY TO TREAT HUNTINGTON'S DISEASE” (The Chinese University of Hong Kong, priority 2022, published 2026).
“Also recorded” adds a separate entry of the source.

Legend:
[1] = system: EGFP-Htt1-550CAG89-expressing SK-N-MC cells; test: LDH cell death assay, EGFP-Htt1-550CAG89-expressing SK-N-MC cells; format: cell-based
Method: (§1) SK-N-MC cells (ATCC) were cultured in DMEM (GE Healthcare BioSciences) supplemented with 10% fetal bovine serum and 1% penicillin-streptomycin. Cells were maintained in a 37° C. humidified cell culture incubator supplemented with 5% CO2. Plasmid DNA and siRNA/synthetic miRNA transfection was performed using Lipofectamine 2000 (Thermo Fisher Scientific) and Lipofectamine RNAiMAX (Thermo Fisher Scientific), respectively.
(§2) The LDH assay on SK-N-MC cells were performed according to manufacturer's instructions (CytoTox 96 Non-Radioactive Cytotoxicity Assay Kit, Promega).

[2] = system: EGFPCAG78-expressing SK-N-MC cells; test: LDH cell death assay, EGFPCAG78-expressing SK-N-MC cells; format: cell-based
Method: as §1, §2

[3] = system: TAK1-MKK4-JNK pro-apoptotic signaling in EGFPCAG78-expressing cells; test: Western blotting of TAK1-MKK4-JNK caspase cascade, EGFPCAG78-expressing cells; format: cell-based; conditions: for TAB1 expression / TAK1-triggered cell death / TAB2 expression: EGFPCAG78-transfected cells; for TAK1-triggered cell death: FIG. 9A; for EGFPCAG78-induced TAK1 functional deregulation: FIG. 9B
Method: as §1
(§3) Proteins were extracted from SK-N-MC cells or mouse primary cortical neurons using SDS sample buffer. For protein extraction from mice, half of the brain was homogenized in protein lysis buffer (50 mM Tris-HCl, pH 7.6, 150 mM NaCl, 10% NP40, 5% sodium deoxycholate). All protein samples were boiled at 99° C. for 10 minutes, prior to Western blotting. Primary antibodies used were anti-PAPD5 (PA5-46747, 1:1,000) from Invitrogen; anti-p-TAK1 (4536, 1:1,000), anti-t-TAK1 (4505, 1:2,000), anti-p-MKK4 (9156, 1:1,000), anti-t-MKK4 (9152, 1:2,000), anti-p-MKK7 (4171, 1:1,000), anti-t-MKK7 (4172, 1:2,000), anti-p-JNK (9251, 1:2,000), anti-t-JNK (9252, 1:2,000), anti-TAB1 (3226, 1:2,000), anti-TAB2 (3745, 1:2,000), anti-cleaved caspase 3 (9664, 1:500) and anti-myc (2276, 1:2,000) from Cell Signaling Technology; antipolyQ (P1874, 1:1,000) and anti-HA (H3663, 1:2,000) from Sigma-Aldrich; anti-YY1 (ab109237, 1:2000) and anti-β-tubulin (ab6046, 1:2,000) from Abcam, and anti-GFP (JL-8, 1:4,000) from Clontech. Secondary antibodies used were goat anti-rabbit (11035-045, 1:5,000) and goat anti-mouse (115-035-062, 1:5,000) from Jackson ImmunoResearch.

[4] = system: TAK1-MKK4-JNK pro-apoptotic signaling in EGFP-Htt1-550CAG89-expressing cells; test: Western blotting of TAK1-MKK4-JNK caspase cascade, EGFP-Htt1-550CAG89-expressing SK-N-MC cells; format: cell-based
Method: as §1, §3

[5] = system: telomerase RNA component (TERC); conditions: cited from earlier work
[6] = system: EGFP-Htt1-550CAG89-expressing mouse primary cortical neurons; test: Immunocytochemistry of synaptic markers and neurites, EGFP-Htt1-550CAG89-expressing primary cortical neurons; format: cell-based; conditions: 400 nM BCH001, 72 hours
Method: E16-embryos of C57BL6J wildtype mice were sacrificed to obtain the mouse primary cortical neurons as previously described (Peng et al., 2021). In brief, cortical lobes were dissected out in ice-cold PBS-glucose. Meninges were removed and cortices were digested in trypsin solution. Primary cortical neurons were cultured on poly-[…]-coated (0.05 mg/ml) glass coverslips in 24-well plates (50,000 cells per well) and maintained in a 37° C. humidified cell culture incubator supplemented with 5% CO2. Prior to transfection and drug treatment, neurons were cultured for 5 days. Mature primary neurons were transfected with DNA constructs together with Lipofectamine LTX and Plus Reagent (Thermo Fisher Scientific). Following the manufacturer's protocol, at 4 hours post-transfection culture medium was refreshed and 400 nM of BCH001 was added to the medium. Neurons were further incubated for 72 hours to allow recovery and ectopic expression. Neurons were fixed with 4% paraformaldehyde for 10 minutes, followed by permeabilization (0.2% Triton X-100) for another 10 minutes and blocking (1% BSA) for 1 hour at room temperature. Primary antibody incubation was performed in 1% BSA overnight at 4° C. After washing steps, neurons were incubated with secondary antibodies in 1% BSA in dark for 1 hour at room temperature. Samples were counterstained with 1 μg/ml 4,6-diamidino-2-phenylindole (DAPI) solution for nuclei visualization and then washed with PBS, followed by mounting and examined under a confocal microscope (Leica TCS SP8 high speed imaging system). To examine the neurite arborization and quantify the synaptic markers, primary neurons were stained with MAP2 (1:10,000; ab5392, Abcam) and Synapsin I (1:200; ab8, Abcam), Bassoon (1:200; ab110426, Abcam) or Homer1 (1:200; ab97593, Abcam) antibodies. The z stacked maximal projected images were used for statistical analyses using Photoshop 2020 (Adobe Systems). Ten EGFP-positive neurons per replica were used for the statistical analysis.

[7] = system: PAPD5-overexpressing cells; test: LDH cell death assay, PAPD5-overexpressing cells; format: cell-based
Method: as §1, §2

PAPD5 = PAPD5 (Homo sapiens, UniProt Q8NDF8); conditions: cited from earlier work
[8] = system: HttQ93-induced retinal neurodegeneration; test: Pseudopupil assay, HttQ93 Drosophila model of Huntington's Disease; format: in vivo; conditions: 10 uM BCH001, gmr-GAL4 driver
Method: Fly lines gmr-Gal4 (Ellis et al., 1993), UAS-DsRedCAG0/100 (Li et al., 2008), UAS-Htt exon1Q93 (Steffan et al., 2001), UAS-flMJDQ27/84 (Warrick et al., 2005), UASCTG60/480 (Garcia-Lopez et al., 2008) and UAS-EGFP-CGG90 (Jin et al., 2003) were described previously. The UAS-PAPD5 dsRNA line (GD19799, GD41096, and GD45261) was obtained from Vienna Drosophila RNAi Center. All flies were maintained in cornmeal culture medium and genetic crosses were set up in a 21.5° C. incubator (LMS, Sevenoaks, Kent, UK).
12 days-post-eclosion (dpe) adult flies were used for the pseudopupil assay as described previously (Wong et al., 2008). Each fly eye was examined using an Olympus CX31 stereomicroscope. The images of ommatidia were captured using a SPOT Insight CCD camera (Diagnostic instruments Inc., Sterling Heights, MI, USA), and all images were processed using the SPOT Advanced software (Version 5.2; Diagnostic instruments Inc., Sterling Heights, MI, USA) and Photoshop 2020 (Adobe Systems). Two hundred ommatidia collected from 20 individual fly eyes were examined for each condition and used for statistical analysis. The average number of rhabdomeres per ommatidia was presented as the indication of ommatidial integrity.

A-beta peptide toxicity = test: A-beta1-42 peptide transgenic Drosophila model of Alzheimer's Disease; format: in vivo; conditions: A-beta1-42 transgenic Drosophila
[9] = system: JNK phosphorylation and caspase 3 cleavage in EGFP-Htt1-550CAG89-expressing neurons; test: Western blotting, EGFP-Htt1-550CAG89-expressing primary cortical neurons; format: cell-based, mouse
Method: E16-embryos of C57BL6J wildtype mice were sacrificed to obtain the mouse primary cortical neurons as previously described (Peng et al., 2021). In brief, cortical lobes were dissected out in ice-cold PBS-glucose. Meninges were removed and cortices were digested in trypsin solution. Primary cortical neurons were cultured on poly-[…]-coated (0.05 mg/ml) glass coverslips in 24-well plates (50,000 cells per well) and maintained in a 37° C. humidified cell culture incubator supplemented with 5% CO2. Prior to transfection and drug treatment, neurons were cultured for 5 days. Mature primary neurons were transfected with DNA constructs together with Lipofectamine LTX and Plus Reagent (Thermo Fisher Scientific). Following the manufacturer's protocol, at 4 hours post-transfection culture medium was refreshed and 400 nM of BCH001 was added to the medium. Neurons were further incubated for 72 hours to allow recovery and ectopic expression. Proteins were extracted from SK-N-MC cells or mouse primary cortical neurons using SDS sample buffer. For protein extraction from mice, half of the brain was homogenized in protein lysis buffer (50 mM Tris-HCl, pH 7.6, 150 mM NaCl, 10% NP40, 5% sodium deoxycholate). All protein samples were boiled at 99° C. for 10 minutes, prior to Western blotting. […]

[10] = system: TAK1-MKK4-JNK pro-apoptotic signaling in PAPD5-overexpressing cells; test: Western blotting of TAK1-MKK4-JNK caspase cascade, PAPD5-overexpressing cells; format: cell-based
Method: as §1, §3

Chain of PAPD5 (Q8NDF8 whole entry, the tested form may be a part): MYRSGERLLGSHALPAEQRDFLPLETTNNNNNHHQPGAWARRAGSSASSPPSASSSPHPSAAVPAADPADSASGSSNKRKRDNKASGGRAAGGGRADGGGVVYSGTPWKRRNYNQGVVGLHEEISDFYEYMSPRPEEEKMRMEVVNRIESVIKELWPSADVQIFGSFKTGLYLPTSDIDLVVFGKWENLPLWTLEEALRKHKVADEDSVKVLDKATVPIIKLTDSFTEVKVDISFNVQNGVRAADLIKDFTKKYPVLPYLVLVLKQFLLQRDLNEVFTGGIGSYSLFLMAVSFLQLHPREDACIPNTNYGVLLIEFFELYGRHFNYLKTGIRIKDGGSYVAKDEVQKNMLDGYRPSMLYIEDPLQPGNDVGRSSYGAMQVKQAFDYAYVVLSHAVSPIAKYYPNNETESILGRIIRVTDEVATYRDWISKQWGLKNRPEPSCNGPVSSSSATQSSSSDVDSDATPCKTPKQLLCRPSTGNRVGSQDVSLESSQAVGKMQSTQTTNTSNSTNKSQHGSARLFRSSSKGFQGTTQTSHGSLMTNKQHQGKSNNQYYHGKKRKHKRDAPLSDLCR

## miR-504: miRNA targeting TAB1, expressed from construct pRI-CMV/GFP-miR-504 (mimic sequence SEQ ID NO: 3) (GACCCTGGTCTGCACTCTATC; listed as DNA, chemistry not fully specified)
[1]
  EGFP-Htt1-550CAG89-induced cell death: rescued
[2]
  mutant CAG RNA (EGFPCAG78)-induced cell death: inhibited in a dose-dependent manner
[3]; EGFPCAG78-expressing cells, miRNA overexpression
  phosphorylation of TAK1 and JNK, and cleavage of caspase 3: suppressed
[3]
  TAB1 expression: most robust gene-silencing effects; also recorded: reduced
[4]
  caspase 3 cleavage: rescued
  phosphorylation levels of TAK1, MKK4 and JNK: rescued

## miR-10a-5p: miRNA (IDT), SEQ ID NO: 10, predicted to target TAB1 (UACCCUGUAGAUCCGAAUUUGUG; listed as RNA, chemistry not given here)
[3]
  TAB1 expression: able to silence
  TAK1-triggered cell death: inhibit

## miR-22-5p: miRNA (IDT), SEQ ID NO: 14, predicted to target TAB2 (AGUUCUUCAGUGGCAAGCUUUA; listed as RNA, chemistry not given here)
[3]
  TAB2 expression: capable of silencing
  EGFPCAG78-induced TAK1 functional deregulation: inhibiting

## miR-331-3p: miRNA (IDT), SEQ ID NO: 12, predicted to target TAB1 (GCCCCUGGGCCUAUCCUAGAA; listed as RNA, chemistry not given here)
[3]
  TAB1 expression: able to silence
  TAK1-triggered cell death: inhibit

## CCOC(=O)c1cnc2ccc(OC(F)(F)F)cc2c1Nc1ccccc1C(=O)O [BCH001]
[1]
  EGFP-Htt1-550CAG89-induced cell death: rescued
[5]
  3' adenylation of telomerase RNA component (TERC): reduced
[2]
  mutant CAG RNA (EGFPCAG78)-induced cell death: completely suppressed
[2]; Homo sapiens, FIG. 11, read-out: IC50 of suppression of EGFPCAG78-induced cell death
  IC50: 14.7 nM
[4]
  caspase 3 cleavage: suppressed
  phosphorylation levels of TAK1, MKK4 and JNK: reduced
[6]
  neurites (primary, secondary, tertiary): recovered to their control levels
  puncta number of Bassoon: restoration
  puncta number of Homer1: restoration
  puncta number of Synapsin I: restoration
  synaptic defects: fully rescued
[7]; 200 nM BCH001, FIG. 4A
  PAPD5-induced cell death: sufficient to suppress
[7]; 400 nM, FIG. 4A
  cell death induced by the compound: does not induce cell death
[7]; PAPD5 overexpression
  PAPD5-induced cell death: suppressed in a dose-dependent manner
PAPD5
  PAPD5 enzyme activity: specifically target
[8]
  HttQ93-induced retinal neurodegeneration (rhabdomere numbers): marked suppression
A-beta peptide toxicity
  A-beta peptide toxicity (retinal degeneration): capable of suppressing
[9]
  JNK phosphorylation: attenuated
  caspase 3 cleavage: attenuated
[10]
  TAK1/MKK4/JNK phosphorylation: suppressed in a dose-dependent manner
  caspase 3 cleavage: suppressed in a dose-dependent manner

## COc1cc(O)c2c(c1)/C=C/C[C@H](O)[C@H](O)C(=O)/C=C\C[C@H](C)OC2=O [5Z-7-oxozeaenol]
[1]
  EGFP-Htt1-550CAG89-induced cell death: rescued
[2]
  mutant CAG RNA (EGFPCAG78)-induced cell death: rescued
[3]; EGFPCAG78-expressing cells
  TAK1-MKK4-JNK pro-apoptotic signaling (phosphorylation of TAK1, MKK4, JNK, caspase 3 cleavage): suppressed
[4]
  caspase 3 cleavage: rescued
  phosphorylation levels of TAK1, MKK4 and JNK: rescued
[7]; PAPD5 overexpression
  PAPD5-induced cell death: suppressed
[10]
  TAK1/MKK4/JNK phosphorylation: dose-dependent decrease
  caspase 3 cleavage: dose-dependent decrease

## miR-7-5p: miRNA (IDT), SEQ ID NO: 15, predicted to target TAB2
[3]
  TAB2 expression: capable of silencing
  EGFPCAG78-induced TAK1 functional deregulation: inhibiting

## COCCCOc1cc2c(cc1OC)-c1cc(=O)c(C(=O)O)cn1[C@H](C(C)C)C2 [RG7834]
A-beta peptide toxicity
  A-beta peptide toxicity (retinal degeneration): capable of suppressing
